# Test results reported in US20220132846A1, “1-PYRIDYL-PYRAZOLYL AMIDE COMPOUNDS AND PREPARATION AND USES THEREOF” (HUNAN RESEARCH INSTITUTE OF CHEMICAL INDUSTRY CO., LTD., priority 2019, published 2022).
# What was measured:
# Aphis fabae = experiment: Test against aphid, leaf dip method (Aphis fabae); assay type: in vivo; conditions: foliar; for mortality at 12.5 µg/mL: 12.5 mg/L; for mortality at 12.5 µg/mL / mortality at 50 µg/mL / mortality at 200 µg/mL / mortality at 500 µg/mL: after 24 hours, read-out: Activity (mortality) level against Aphis fabae; for mortality at 50 µg/mL: 50 mg/L; for mortality at 200 µg/mL: 200 mg/L; for mortality at 500 µg/mL: 500 mg/L
# Experimental: For evaluating the activity of the compounds of this invention against Homoptera pests, Aphis fabae, wheat aphids, etc. were selected as the test insects, and the activity of the compounds of this invention against aphids was measured by leaf dip method indoors.
# Leaf dip method (Aphis fabae): the test compound was dissolved in an appropriate solvent such as N,N-dimethylformamide, and then diluted with 0.2% aqueous solution of Tween 80 to the desired concentration, Those without the test compounds were set as blank controls, the treatments were replicated 3 times. Horsebean seedlings with no less than twenty 3-day-old Aphis fabae per plant was cut from the stem, 5 horsebean seedlings with the insects were dipped in the test solution for 5 seconds, then inserted into a sponge filled with water after sucked dry using filter paper, then covered with a glass tube and placed in a chamber for culture. After 24 hours, the number of living and dead insects were investigated and the results were averaged. […]
# [1] = tested on: Armyworm (Mythimna separata (Walker)); experiment: Test against armyworm, Potter tower method; assay type: in vivo; conditions: Mythimna separata, third-instar larvae, after 72 hours, read-out: Activity (mortality) level against armyworm; for mortality at 50 µg/mL: 50 mg/L; for mortality at 500 µg/mL: 500 mg/L; for mortality at 12.5 µg/mL: 12.5 mg/L
# Experimental: Potter tower method: the test compound was dissolved in an appropriate solvent such as N,N-dimethylformamide, and then diluted with 0.2% aqueous solution of Tween 80 to the desired concentration, Those without the test compounds were set as blank controls. The fresh and tender corn leaves were taken and cut into fragments of basically the same size, then put into a Petri dish (diameter 90 mm) padded with filter paper in advance. Ten third-instar larvae of test insects were transferred into the dish and then placed under the Potter spray tower for being sprayed, each concentration treatment was sprayed at the amount of 1 mL and replicated 3 times. The dish was covered and then placed in a chamber for culture and observed regularly, after 72 hours, the dead insects was investigated and recorded and the mean mortality was calculated. […]
structure (smiles),measurement,setting,value
"CCCN(C(=O)c1cc(Br)nn1-c1ncccc1Cl)c1c(Cl)cc(Cl)cc1C(=O)N(C)C [Compound 19, N-[2,4-dichloro-6-[(dimethylamino)carbonyl]phenyl]-N-propyl-1-(3-chloro-2-pyridinyl)-3-bromo-1H-pyrazole-5-carboxamide]",mortality at 12.5 µg/mL,Aphis fabae,90 to 100%
same,mortality at 50 µg/mL,Aphis fabae,90 to 100%
same,mortality at 200 µg/mL,Aphis fabae,90 to 100%
same,mortality at 500 µg/mL,Aphis fabae,90 to 100%
same,mortality at 50 µg/mL,[1],90 to 100%
same,mortality at 500 µg/mL,[1],90 to 100%
"CCCN(C)C(=O)c1cc(Cl)cc(Cl)c1N(CCC)C(=O)c1cc(Br)nn1-c1ncccc1Cl [Compound 20, N-[2,4-dichloro-6-[(methyl(propyl)amino)carbonyl]phenyl]-N-propyl-1-(3-chloro-2-pyridinyl)-3-bromo-1H-pyrazole-5-carboxamide]",mortality at 200 µg/mL,Aphis fabae,90 to 100%
same,mortality at 500 µg/mL,Aphis fabae,90 to 100%
same,mortality at 50 µg/mL,[1],90 to 100%
same,mortality at 500 µg/mL,[1],90 to 100%
"CN(C)C(=S)c1cc(Cl)cc(Cl)c1N(C)C(=O)c1cc(Br)nn1-c1ncccc1Cl [Compound 21, N-[2,4-dichloro-6-[(dimethylamino)thioxomethyl]phenyl]-N-methyl-1-(3-chloro-2-pyridinyl)-3-bromo-1H-pyrazole-5-carboxamide]",mortality at 12.5 µg/mL,Aphis fabae,90 to 100%
same,mortality at 50 µg/mL,Aphis fabae,90 to 100%
same,mortality at 200 µg/mL,Aphis fabae,90 to 100%
same,mortality at 500 µg/mL,Aphis fabae,90 to 100%
same,mortality at 50 µg/mL,[1],90 to 100%
same,mortality at 500 µg/mL,[1],90 to 100%
"CC(C)N(C)C(=S)c1cc(Cl)cc(Cl)c1N(C)C(=O)c1cc(Br)nn1-c1ncccc1Cl [Compound 22, N-[2,4-dichloro-6-[(methyl(isopropyl)amino)thioxomethyl]phenyl]-N-methyl-1-(3-chloro-2-pyridinyl)-3-bromo-1H-pyrazole-5-carboxamide]",mortality at 12.5 µg/mL,Aphis fabae,90 to 100%
same,mortality at 50 µg/mL,Aphis fabae,90 to 100%
same,mortality at 200 µg/mL,Aphis fabae,90 to 100%
same,mortality at 500 µg/mL,Aphis fabae,90 to 100%
same,mortality at 12.5 µg/mL,[1],90 to 100%
same,mortality at 50 µg/mL,[1],90 to 100%
same,mortality at 500 µg/mL,[1],90 to 100%
"CCN(CC)C(=S)c1cc(Cl)cc(Cl)c1N(C)C(=O)c1cc(Br)nn1-c1ncccc1Cl [Compound 23, N-[2,4-dichloro-6-[(diethylamino)thioxomethyl]phenyl]-N-methyl-1-(3-chloro-2-pyridinyl)-3-bromo-1H-pyrazole-5-carboxamide]",mortality at 200 µg/mL,Aphis fabae,90 to 100%
same,mortality at 500 µg/mL,Aphis fabae,90 to 100%
same,mortality at 12.5 µg/mL,[1],90 to 100%
same,mortality at 50 µg/mL,[1],90 to 100%
same,mortality at 500 µg/mL,[1],90 to 100%
"CCN(CC)C(=S)c1cc(Cl)cc(Cl)c1N(C)C(=S)c1cc(Br)nn1-c1ncccc1Cl [Compound 24, N-[2,4-dichloro-6-[(diethylamino)thioxomethyl]phenyl]-N-methyl-1-(3-chloro-2-pyridinyl)-3-bromo-1H-pyrazole-5-carbothioamide]",mortality at 200 µg/mL,Aphis fabae,90 to 100%
same,mortality at 500 µg/mL,Aphis fabae,90 to 100%
same,mortality at 50 µg/mL,[1],90 to 100%
same,mortality at 500 µg/mL,[1],90 to 100%
"CNC(=O)c1cc(Cl)cc(Br)c1N(C)C(=O)c1cc(Br)nn1-c1ncccc1Cl [Compound 25, N-[2-bromo-4-chloro-6-[(methylamino)carbonyl]phenyl]-N-methyl-1-(3-chloro-2-pyridinyl)-3-bromo-1H-pyrazole-5-carboxamide]",mortality at 12.5 µg/mL,Aphis fabae,90 to 100%
same,mortality at 50 µg/mL,Aphis fabae,90 to 100%
same,mortality at 200 µg/mL,Aphis fabae,90 to 100%
same,mortality at 500 µg/mL,Aphis fabae,90 to 100%
same,mortality at 12.5 µg/mL,[1],90 to 100%
same,mortality at 50 µg/mL,[1],90 to 100%
same,mortality at 500 µg/mL,[1],90 to 100%
"CCNC(=O)c1cc(Cl)cc(Br)c1N(C)C(=O)c1cc(Br)nn1-c1ncccc1Cl [Compound 26, N-[2-bromo-4-chloro-6-[(ethylamino)carbonyl]phenyl]-N-methyl-1-(3-chloro-2-pyridinyl)-3-bromo-1H-pyrazole-5-carboxamide]",mortality at 12.5 µg/mL,Aphis fabae,90 to 100%
same,mortality at 50 µg/mL,Aphis fabae,90 to 100%
same,mortality at 200 µg/mL,Aphis fabae,90 to 100%
same,mortality at 500 µg/mL,Aphis fabae,90 to 100%
same,mortality at 12.5 µg/mL,[1],90 to 100%
same,mortality at 50 µg/mL,[1],90 to 100%
same,mortality at 500 µg/mL,[1],90 to 100%
"O=[N+]([O-])/N=C1\NCCN1Cc1ccc(Cl)nc1 [imidacloprid, reference compound]",LC50,Aphis fabae; read-out: LC50 against Aphis fabae,< 1 µg/mL
